Measurements reported in article PMC5218480 (PLoS ONE, 2017).

Test system: MV-4-11 cells
Assay: Gene expression microarray analysis (Affymetrix PrimeView) and GSEA
Format: cell-based, human
Design: RFU PODN (11730768_x_at) / Fold change /veh PODN (11730768_x_at) / RFU LINC00158 (11744669_a_at) / Fold change /veh LINC00158 (11744669_a_at) / RFU DUSP10 (11751237_a_at) / Fold change /veh DUSP10 (11751237_a_at) / RFU ID3 (11757404_x_at) / Fold change /veh ID3 (11757404_x_at) / RFU PLEKHG5 (11737974_s_at) / Fold change /veh PLEKHG5 (11737974_s_at) / RFU LRRC4B (11730491_at) / Fold change /veh LRRC4B (11730491_at) / RFU GIMAP4 (11747438_a_at) / Fold change /veh GIMAP4 (11747438_a_at) / RFU KRT8 (11758183_x_at) / Fold change /veh KRT8 (11758183_x_at) / RFU CNN1 (11734310_a_at) / Fold change /veh CNN1 (11734310_a_at) / RFU VPS37D (11726825_at) / Fold change /veh VPS37D (11726825_at) / RFU C10orf10 (11716522_x_at) / Fold change /veh C10orf10 (11716522_x_at) / RFU KIR2DL2 /// KIR2DL4 /// KIR2DL5A /// KIR2DL5B /// KIR2DS1 /// KIR2DS2 /// KIR2DS3 /// KIR2DS4 /// KIR3DL3 /// KIR3DL3 /// KIR3DS1 (11738374_at) / Fold change /veh KIR2DL2 /// KIR2DL4 /// KIR2DL5A /// KIR2DL5B /// KIR2DS1 /// KIR2DS2 /// KIR2DS3 /// KIR2DS4 /// KIR3DL3 /// KIR3DL3 /// KIR3DS1 (11738374_at) / RFU C1QL1 (11718748_at) / Fold change /veh C1QL1 (11718748_at) / RFU TMPRSS4 (11747572_a_at) / Fold change /veh TMPRSS4 (11747572_a_at) / RFU HAMP (11756126_x_at) / Fold change /veh HAMP (11756126_x_at) / RFU RNFT2 (11725882_a_at) / Fold change /veh RNFT2 (11725882_a_at) / RFU NR4A2 (11747474_a_at) / Fold change /veh NR4A2 (11747474_a_at) / RFU ABCC12 (11746883_a_at) / Fold change /veh ABCC12 (11746883_a_at) / RFU TMEM136 (11760407_x_at) / Fold change /veh TMEM136 (11760407_x_at) / RFU CLDN22 /// WWC2 (11732394_at) / Fold change /veh CLDN22 /// WWC2 (11732394_at) / RFU HLA-DPB1 (11760878_x_at) / Fold change /veh HLA-DPB1 (11760878_x_at) / RFU SPINT1 (11716480_a_at) / Fold change /veh SPINT1 (11716480_a_at) / RFU GAP43 (11754022_s_at) / Fold change /veh GAP43 (11754022_s_at) / RFU A4GNT (11735810_at) / Fold change /veh A4GNT (11735810_at) / RFU PRB3 (11715151_x_at) / Fold change /veh PRB3 (11715151_x_at) / RFU TUBB4B (11761932_at) / Fold change /veh TUBB4B (11761932_at) / RFU CAPN14 (11732068_a_at) / Fold change /veh CAPN14 (11732068_a_at) / RFU TMCC2 (11721928_a_at) / Fold change /veh TMCC2 (11721928_a_at) / RFU IRGQ (11745062_a_at) / Fold change /veh IRGQ (11745062_a_at) / RFU FAM174B (11720279_a_at) / Fold change /veh FAM174B (11720279_a_at) / RFU TMPRSS4 (11748680_a_at) / Fold change /veh TMPRSS4 (11748680_a_at) / RFU FAM212B (11763350_a_at) / Fold change /veh FAM212B (11763350_a_at) / RFU PLEKHG5 (11743358_a_at) / Fold change /veh PLEKHG5 (11743358_a_at) / RFU ZSCAN30 (11745921_a_at) / Fold change /veh ZSCAN30 (11745921_a_at) / RFU CMKLR1 (11741424_a_at) / Fold change /veh CMKLR1 (11741424_a_at) / RFU LOC101060620 /// MAPK8IP1 (11723275_at) / Fold change /veh LOC101060620 /// MAPK8IP1 (11723275_at) / RFU SPTSSB (11747773_x_at) / Fold change /veh SPTSSB (11747773_x_at) / RFU PRSS12 (11739890_at) / Fold change /veh PRSS12 (11739890_at) / RFU BIN1 (11741810_x_at) / Fold change /veh BIN1 (11741810_x_at) / RFU WNT11 (11732464_a_at) / Fold change /veh WNT11 (11732464_a_at) / RFU C10orf10 (11716521_a_at) / Fold change /veh C10orf10 (11716521_a_at) / RFU C5orf56 (11738089_at) / Fold change /veh C5orf56 (11738089_at) / RFU CYB561 (11721691_x_at) / Fold change /veh CYB561 (11721691_x_at) / RFU ANKRD19P (11752326_a_at) / Fold change /veh ANKRD19P (11752326_a_at) / RFU OR2T12 /// OR2T33 /// OR2T8 (11738714_s_at) / Fold change /veh OR2T12 /// OR2T33 /// OR2T8 (11738714_s_at) / RFU VCAN (11748164_a_at) / Fold change /veh VCAN (11748164_a_at) / RFU JSRP1 (11732532_at) / Fold change /veh JSRP1 (11732532_at) / RFU KRTAP10-11 (11738290_x_at) / Fold change /veh KRTAP10-11 (11738290_x_at) / RFU MYO3A (11730013_a_at) / Fold change /veh MYO3A (11730013_a_at) / RFU EBF3 (11725865_a_at) / Fold change /veh EBF3 (11725865_a_at) / RFU CAMK2N1 (11719241_x_at) / Fold change /veh CAMK2N1 (11719241_x_at) / RFU C5orf56 (11738088_a_at) / Fold change /veh C5orf56 (11738088_a_at) / RFU OLFML3 (11715873_a_at) / Fold change /veh OLFML3 (11715873_a_at) / RFU LOC100653217 /// NTM (11731650_a_at) / Fold change /veh LOC100653217 /// NTM (11731650_a_at) / RFU MAPK11 (11762145_a_at) / Fold change /veh MAPK11 (11762145_a_at) / RFU FIZ1 (11724087_x_at) / Fold change /veh FIZ1 (11724087_x_at) / RFU OASL (11726364_x_at) / Fold change /veh OASL (11726364_x_at) / RFU SOX15 (11748057_x_at) / Fold change /veh SOX15 (11748057_x_at) / RFU CD79A (11719716_a_at) / Fold change /veh CD79A (11719716_a_at) / RFU HIST1H1D (11736915_at) / Fold change /veh HIST1H1D (11736915_at) / RFU CASKIN2 (11723855_a_at) / Fold change /veh CASKIN2 (11723855_a_at) / RFU LOC730098 (11760151_x_at) / Fold change /veh LOC730098 (11760151_x_at) / RFU OR4N2 (11742367_at) / Fold change /veh OR4N2 (11742367_at) / RFU PRRT2 (11749266_a_at) / Fold change /veh PRRT2 (11749266_a_at) / RFU SNX32 (11753110_a_at) / Fold change /veh SNX32 (11753110_a_at) / RFU CDHR5 (11726645_a_at) / Fold change /veh CDHR5 (11726645_a_at) / RFU RCAN1 (11760418_a_at) / Fold change /veh RCAN1 (11760418_a_at) / RFU FAM167A (11723789_a_at) / Fold change /veh FAM167A (11723789_a_at) / RFU FAM26E (11764081_at) / Fold change /veh FAM26E (11764081_at) / RFU ISYNA1 (11749810_s_at) / Fold change /veh ISYNA1 (11749810_s_at) / RFU ACY1 (11761880_at) / Fold change /veh ACY1 (11761880_at) / RFU 11764098_at / Fold change /veh 11764098_at / RFU SAMD14 (11745864_x_at) / Fold change /veh SAMD14 (11745864_x_at) / RFU NPB (11741838_a_at) / Fold change /veh NPB (11741838_a_at) / RFU TMPRSS6 (11731388_a_at) / Fold change /veh TMPRSS6 (11731388_a_at) / RFU KRTAP10-2 (11738614_at) / Fold change /veh KRTAP10-2 (11738614_at) / RFU ARHGAP8 /// PRR5-ARHGAP8 (11727945_x_at) / Fold change /veh ARHGAP8 /// PRR5-ARHGAP8 (11727945_x_at) / RFU KRTAP5-7 /// NADSYN1 (11734609_at) / Fold change /veh KRTAP5-7 /// NADSYN1 (11734609_at) / RFU RASL12 (11751679_a_at) / Fold change /veh RASL12 (11751679_a_at) / RFU CDKN2B (11736163_a_at) / Fold change /veh CDKN2B (11736163_a_at) / RFU PRF1 (11729649_at) / Fold change /veh PRF1 (11729649_at) / RFU, ZNF638 /// ZNF638-IT1 / Fold change vs veh, ZNF638 /// ZNF638-IT1 / RFU, PANK3 / Fold change vs veh, PANK3 / RFU, SH3YL1 / Fold change vs veh, SH3YL1 / RFU, ZEB2 / Fold change vs veh, ZEB2 / RFU, NRIP1 / Fold change vs veh, NRIP1 / RFU, PTTG1IP / Fold change vs veh, PTTG1IP / RFU, CAPN2 / Fold change vs veh, CAPN2 / RFU, MED14 / Fold change vs veh, MED14 / RFU, SNORA58 / Fold change vs veh, SNORA58 / RFU, C1orf63 / Fold change vs veh, C1orf63 / RFU, LRRFIP1 / Fold change vs veh, LRRFIP1 / RFU, NDUFAF7 / Fold change vs veh, NDUFAF7 / RFU, SLC12A2 / Fold change vs veh, SLC12A2 / RFU, IBTK / Fold change vs veh, IBTK / RFU, ESF1 / Fold change vs veh, ESF1 / Fold change vs veh, TMEM50B / RFU, TAOK1 / Fold change vs veh, TAOK1 / RFU, ACBD3 / Fold change vs veh, ACBD3 / RFU, TMA16 / Fold change vs veh, TMA16 / RFU, RWDD3 / Fold change vs veh, RWDD3 / RFU, BCAT1 / Fold change vs veh, BCAT1 / RFU, EDEM3 / Fold change vs veh, EDEM3 / RFU, TMEM33 / Fold change vs veh, TMEM33 / RFU, WDR75 / Fold change vs veh, WDR75 / RFU, AHCTF1 / Fold change vs veh, AHCTF1 / RFU, TFRC / Fold change vs veh, TFRC / RFU, ZDHHC17 / Fold change vs veh, ZDHHC17 / RFU, NOM1 / Fold change vs veh, NOM1 / RFU, ARL8B / Fold change vs veh, ARL8B / RFU, ZBTB11 / Fold change vs veh, ZBTB11 / RFU, TAMM41 / Fold change vs veh, TAMM41 / RFU, KIAA1704 /// LOC100996395 / Fold change vs veh, KIAA1704 /// LOC100996395 / RFU, ING1 / Fold change vs veh, ING1 / RFU, TRMT61B / Fold change vs veh, TRMT61B / RFU, FUBP3 / Fold change vs veh, FUBP3 / RFU, TP53 / Fold change vs veh, TP53 / RFU, TNKS2 / Fold change vs veh, TNKS2 / RFU, ZFP14 / Fold change vs veh, ZFP14 / RFU, ACTR2 / Fold change vs veh, ACTR2 / RFU, PPP3R1 / Fold change vs veh, PPP3R1 / RFU, PIK3R1 / Fold change vs veh, PIK3R1 / RFU, HNRNPA1 / Fold change vs veh, HNRNPA1 / RFU, RNF170 / Fold change vs veh, RNF170 / RFU, ZNF28 / Fold change vs veh, ZNF28 / RFU, RNGTT / Fold change vs veh, RNGTT / RFU, OGT / Fold change vs veh, OGT / RFU, BRD1 / Fold change vs veh, BRD1 / RFU, MARS / Fold change vs veh, MARS / RFU, ZNF655 / Fold change vs veh, ZNF655 / RFU, FAHD1 / Fold change vs veh, FAHD1 / RFU, BDP1 / Fold change vs veh, BDP1 / RFU, LRRCC1 / Fold change vs veh, LRRCC1 / RFU, ARID1A / Fold change vs veh, ARID1A / RFU, ZNF146 / Fold change vs veh, ZNF146 / RFU, ZNF330 / Fold change vs veh, ZNF330 / RFU, GPN3 / Fold change vs veh, GPN3 / RFU, C9orf123 / Fold change vs veh, C9orf123 / RFU, N4BP2L2 / Fold change vs veh, N4BP2L2 / RFU, ARFIP1 / Fold change vs veh, ARFIP1 / RFU, FAM179B / Fold change vs veh, FAM179B / RFU, BCL10 / Fold change vs veh, BCL10 / RFU, UHRF1BP1L / Fold change vs veh, UHRF1BP1L / RFU, BET1 / Fold change vs veh, BET1 / RFU, CNOT2 / Fold change vs veh, CNOT2 / RFU, ZNF268 / Fold change vs veh, ZNF268 / Fold change vs veh, ZNF507 / RFU, DGCR2 / Fold change vs veh, DGCR2 / RFU, WDSUB1 / Fold change vs veh, WDSUB1 / Fold change vs veh, HSP90B1 /// MIR3652 / RFU, ADSS / Fold change vs veh, ADSS / RFU, GK / Fold change vs veh, GK / RFU, ZNF148 / Fold change vs veh, ZNF148 / RFU, TAF9 / Fold change vs veh, TAF9 / RFU, SLC1A5 / Fold change vs veh, SLC1A5 / RFU, SLMO2 / Fold change vs veh, SLMO2 / RFU, ABCC4 / Fold change vs veh, ABCC4 / RFU, LOC101060439 /// RAP1B / Fold change vs veh, LOC101060439 /// RAP1B / RFU, RFX7 / Fold change vs veh, RFX7 / RFU, GTPBP10 / Fold change vs veh, GTPBP10 / RFU, CNEP1R1 / Fold change vs veh, CNEP1R1 / RFU, BIVM-ERCC5 /// ERCC5 / Fold change vs veh, BIVM-ERCC5 /// ERCC5 / RFU, ILF3 / Fold change vs veh, ILF3 / RFU 11762660_at / Fold change /veh 11762660_at / RFU VCAN (11757783_s_at) / Fold change /veh VCAN (11757783_s_at) / RFU DDX43 (11728927_at) / Fold change /veh DDX43 (11728927_at) / RFU KRT8 (11758188_x_at) / Fold change /veh KRT8 (11758188_x_at) / RFU NKD1 (11759106_at) / Fold change /veh NKD1 (11759106_at) / RFU SRD5A1 (11742802_a_at) / Fold change /veh SRD5A1 (11742802_a_at) / RFU TPSAB1 /// TPSB2 (11721975_s_at) / Fold change /veh TPSAB1 /// TPSB2 (11721975_s_at) / RFU GSTM3 (11746129_a_at) / Fold change /veh GSTM3 (11746129_a_at) / RFU IL23R (11737362_x_at) / Fold change /veh IL23R (11737362_x_at) / RFU TMEM51 (11727254_a_at) / Fold change /veh TMEM51 (11727254_a_at) / RFU PIWIL2 (11732686_x_at) / Fold change /veh PIWIL2 (11732686_x_at) / RFU ORM1 (11744905_x_at) / Fold change /veh ORM1 (11744905_x_at) / RFU CCDC152 (11743942_at) / Fold change /veh CCDC152 (11743942_at) / RFU ECM1 (11717891_a_at) / Fold change /veh ECM1 (11717891_a_at) / RFU IL23R (11748794_a_at) / Fold change /veh IL23R (11748794_a_at) / RFU TNFAIP8L3 (11732012_x_at) / Fold change /veh TNFAIP8L3 (11732012_x_at) / RFU MBOAT4 (11741988_at) / Fold change /veh MBOAT4 (11741988_at) / RFU 11764193_at / Fold change /veh 11764193_at / RFU TMEM53 (11763286_at) / Fold change /veh TMEM53 (11763286_at) / RFU MAGEB2 (11727129_at) / Fold change /veh MAGEB2 (11727129_at) / RFU TMEM200A (11744735_a_at) / Fold change /veh TMEM200A (11744735_a_at) / RFU CCDC152 (11751479_a_at) / Fold change /veh CCDC152 (11751479_a_at) / RFU FAM211A (11726209_a_at) / Fold change /veh FAM211A (11726209_a_at) / RFU RGS16 (11746705_a_at) / Fold change /veh RGS16 (11746705_a_at) / RFU VCAN (11755009_s_at) / Fold change /veh VCAN (11755009_s_at) / RFU RHOB (11743442_s_at) / Fold change /veh RHOB (11743442_s_at) / RFU RGS16 (11720943_a_at) / Fold change /veh RGS16 (11720943_a_at) / RFU RGS16 (11720944_at) / Fold change /veh RGS16 (11720944_at) / RFU, VPS4B / Fold change vs veh, VPS4B / RFU, CREB1 / Fold change vs veh, CREB1 / RFU, DNAJC13 / Fold change vs veh, DNAJC13 / RFU, GNAQ / Fold change vs veh, GNAQ / RFU, CDK5R1 / Fold change vs veh, CDK5R1 / RFU, ZRANB3 / Fold change vs veh, ZRANB3 / RFU, CUL4A / Fold change vs veh, CUL4A / RFU, CCNY / Fold change vs veh, CCNY / RFU, UFL1 / Fold change vs veh, UFL1 / RFU, COG3 / Fold change vs veh, COG3 / RFU, DIAPH2 / Fold change vs veh, DIAPH2 / RFU, SKA2 / Fold change vs veh, SKA2 / RFU, AFF3 / Fold change vs veh, AFF3 / RFU, LMF1 / Fold change vs veh, LMF1 / RFU, IPO11 / Fold change vs veh, IPO11 / RFU, DFFB / Fold change vs veh, DFFB / RFU, FOXP1 / Fold change vs veh, FOXP1 / RFU, CARD8 / Fold change vs veh, CARD8 / RFU, STRN3 / Fold change vs veh, STRN3 / RFU, ADK / Fold change vs veh, ADK / RFU, RASSF2 / Fold change vs veh, RASSF2 / RFU, WIPF1 / Fold change vs veh, WIPF1 / RFU, LARP1B / Fold change vs veh, LARP1B / RFU, RASA1 / Fold change vs veh, RASA1 / RFU, RB1 / Fold change vs veh, RB1 / RFU, PPFIA1 / Fold change vs veh, PPFIA1 / RFU, MAT2A / Fold change vs veh, MAT2A / RFU, CCT5 / Fold change vs veh, CCT5 / RFU, WDR92 / Fold change vs veh, WDR92 / RFU, CUX1 / Fold change vs veh, CUX1 / RFU, TTC7A / Fold change vs veh, TTC7A / RFU, TMEM135 / Fold change vs veh, TMEM135 / RFU, DEPTOR / Fold change vs veh, DEPTOR / RFU, CPM / Fold change vs veh, CPM / RFU, DNAJB6 / Fold change vs veh, DNAJB6 / RFU, CACNA2D3 / Fold change vs veh, CACNA2D3 / RFU, DTX4 / Fold change vs veh, DTX4 / RFU, TFCP2 / Fold change vs veh, TFCP2 / RFU, GMCL1 /// GMCL1P1 / Fold change vs veh, GMCL1 /// GMCL1P1 / RFU, AEBP2 / Fold change vs veh, AEBP2 / RFU, SNHG1 /// SNORD22 /// SNORD25 /// SNORD26 /// SNORD27 /// SNORD28 /// SNORD29 /// SNORD31 / Fold change vs veh, SNHG1 /// SNORD22 /// SNORD25 /// SNORD26 /// SNORD27 /// SNORD28 /// SNORD29 /// SNORD31 / Fold change (Aza/veh), C12orf56 (ProbeSet 11735607_a_at) / Fold change (ACY-1035/veh), C12orf56 (ProbeSet 11735607_a_at) / Fold change (Aza/veh), FGFR1OP (ProbeSet 11751329_s_at) / Fold change (ACY-1035/veh), FGFR1OP (ProbeSet 11751329_s_at) / Fold change (Aza/veh), VPS36 (ProbeSet 11739960_a_at) / Fold change (ACY-1035/veh), VPS36 (ProbeSet 11739960_a_at) / RFU SYPL1 (11715823_x_at) / Fold change /veh SYPL1 (11715823_x_at) / RFU IGFBP7 (11715501_s_at) / Fold change /veh IGFBP7 (11715501_s_at) / RFU REEP3 (11722064_at) / Fold change /veh REEP3 (11722064_at) / RFU IGLL1 (11728026_x_at) / Fold change /veh IGLL1 (11728026_x_at): dose or concentration left out as unconfirmed
Conditions: ProbeSet 11743882_a_at; LIST D

Nc1ncn([C@@H]2O[C@H](CO)[C@@H](O)[C@H]2O)c(=O)n1 [azacitidine]
Fold change vs veh, STRN3: 0.74
